What all share (assay type): in vivo
The subject of one assay is Heliothis virescens. Put plainly: Heliothis virescens (tobacco budworm) egg/larvae test on artificial diet. The note with it: Heliothis virescens, 96 h; 200 ppm by pipetting on eggs (0-24 h old) on artificial diet; 4 days; egg mortality, larval mortality, growth regulation; read-out: control of Heliothis virescens. On the procedure: 4.1 Heliothis Virescens (Tobacco Budworm):
Eggs (0-24 h old) were placed in 24-well microtiter plate on artificial diet and treated with test solutions at an application rate of 200 ppm by pipetting. After an incubation period of 4 days, samples were checked for egg mortality, larval mortality, and growth regulation.

The test system of assay [1] is Myzus persicae. Description: Myzus persicae (green peach aphid) sunflower leaf disc spray test. The note with it: Myzus persicae, foliar, 144 h; 200 ppm spray on sunflower leaf discs; mixed ages; 6 DAT; mortality; read-out: control of Myzus persicae. Here is the method:
4.2 Myzus Persicae (Green Peach Aphid):
Sunflower leaf discs were placed on agar in a 24-well microtiter plate and sprayed with test solutions at an application rate of 200 ppm. After drying, the leaf discs were infested with an aphid population of mixed ages. After an incubation period of 6 DAT, samples were checked for mortality.

The subject of a further assay is T. Urticae. Description: Tetranychus urticae bean leaf disc test, comparison with prior art compounds A and B. To be noted: 12.5 ppm spray on bean leaf discs; mixed ages; 8 days; egg, larval and adult mortality. From the text:
4.4.2 In a further test, the efficacy of one of the compounds giving 100% control in Example 4.4.1 above was compared to the efficacy of imidazoline compounds from the prior art (compounds A and B).
Bean leaf discs on agar in 24-well microtiter plates were sprayed with test solutions at an application rate of 12.5 ppm. After drying, the leaf discs are infested with mite populations of mixed ages. 8 days later, discs are checked for egg mortality, larval mortality, and adult mortality.

A further assay deals with Tetranychus urticae. Description: Tetranychus urticae (two-spotted spider mite) bean leaf disc spray test. To be noted: Tetranychus urticae, foliar, 192 h; 200 ppm spray on bean leaf discs; mixed ages; 8 days; egg, larval and adult mortality; read-out: control of Tetranychus urticae. From the text:
4.4 Tetranychus Urticae (Two-Spotted Spider Mite):
4.4.1 Bean leaf discs on agar in 24-well microtiter plates were sprayed with test solutions at an application rate of 200 ppm. After drying, the leaf discs are infested with mite populations of mixed ages. 8 days later, discs are checked for egg mortality, larval mortality, and adult mortality.

The subject of assay [2] is Myzus persicae. Put plainly: Myzus persicae (green peach aphid) pea seedling root uptake test. To be noted: Myzus persicae, 144 h; 24 ppm test solution, roots of infested pea seedlings; 6 days; mortality; read-out: control of Myzus persicae. From the text: 4.3 Myzus Persicae (Green Peach Aphid):
Roots of pea seedlings, infested with an aphid population of mixed ages, were placed directly in the test solutions of 24 ppm. 6 days after introduction, samples were checked for mortality.

As for `CCC(Oc1cccc(C(F)(F)F)c1Cl)C1=NCCN1` (centres unmarked) [Compound 1.001, 2-[1-(2-Chloro-3-trifluormethyl-phenoxy)-propyl]-4,5-dihydro-1H-imidazole], the pest or weed control at 200 ppm with Heliothis virescens came out at 50%; in the assay on Myzus persicae [1], 100%; in the assay with Tetranychus urticae, 100%. The same compound had a Control % with T. Urticae of 80%. Further, the pest or weed control at 24 ppm in the assay on Myzus persicae [2] was found to be 100%.

(Values after patent US8455663B2, “Halosubstituted aryloxyalkylimidazolines for use as pesticides” (Syngenta Crop Protection LLC, priority 2007, dated 2013).)
